{
  "source": "patent US6544979B1",
  "about": "“Fused imidazole derivatives for improving oral bioavailability of pharmaceutical agents” (Janssen Pharmaceuticals, N.V., priority 1997, dated 2003)",
  "key": {"[1]": {"tested_on": "P388/ADR (adriamycine resistance cell line) murine leukemia", "assay": "MDR in vivo test: reversal of adriamycine resistance in P388/ADR murine leukemia, survival", "set-up": "species or system mice", "conditions": "for MST %: control = 100%", "method": "Male B6D2F1 mice (18-21 g) were injected intraperitoneally with 1×10^5 P388/ADR cells at day 0. Daily intraperitoneal treatment with adriamycine, a test compound of formula (I) or a combination of both was installed from day 1 until day 10. Control animals received the vehicle (15% 4-OH-propyl-β-cyclodextrine in saline). Each group consisted of 8 animals. Adriamycine was dosed at a concentration of 1.25 mg/kg body weight, half the maximal tolerable dose of adriamycine in this treatment schedule. The test compound was dosed at 20, 10, 5, 2.5, 1.25 and 0.63 mg/kg either as single treatment or combined with adriamycine.\nSurvival of the animals was recorded each day and expressed as a percentage of the median survival in the treated groups compared to the median survival in the control group, the latter to be said to be 100%.\nTable C-1 lists the effect of compound 6 and adriamycine on the survival of mice injected with P388/ADR leukemia.\ndoses of compound 6 and adriamycine are expressed as mg/kg body weight.\ncolumn “% Change vs. ADR” give the difference in MST% of the different groups compared to the MST% in the adriamycine-monotherapy group."}, "[2]": {"assay": "in vivo", "conditions": "mouse, po, 10 mg/kg", "method": "The increase in drug bioavailability is defined as an increase in the Area Under the Curve (AUC). AUC is the integrated measure of systemic drug concentrations over time in units of mass-time/volume. The AUC from time zero (the time of dosing) to time infinity (when no drug remains in the body) following the administration of a drug dose is a measure of the exposure of the test subject, i.e. an animal or a human patient, to the drug.\nMice were treated orally (80 mg/kg po) with compound (6) about 10 to 20 minutes prior to oral administration of taxol (10 mg/kg po). The Area Under the Curve (AUC) was measured and compared with the AUC of mice treated only with taxol."}, "[3]": {"conditions": "adriamycine 1.25 mg/kg alone, ip daily day 1-10"}, "[4]": {"conditions": "compound 6 0.63 mg/kg combined with adriamycine 1.25 mg/kg"}, "[5]": {"conditions": "compound 6 0.63 mg/kg single treatment"}, "[6]": {"conditions": "compound 6 1.25 mg/kg combined with adriamycine 1.25 mg/kg"}, "[7]": {"conditions": "compound 6 1.25 mg/kg single treatment"}, "[8]": {"conditions": "compound 6 2.5 mg/kg combined with adriamycine 1.25 mg/kg"}, "[9]": {"conditions": "compound 6 2.5 mg/kg single treatment"}, "[10]": {"conditions": "compound 6 5 mg/kg combined with adriamycine 1.25 mg/kg"}, "[11]": {"conditions": "compound 6 5 mg/kg single treatment"}, "[12]": {"conditions": "compound 6 10 mg/kg combined with adriamycine 1.25 mg/kg"}, "[13]": {"conditions": "compound 6 10 mg/kg single treatment"}, "[14]": {"conditions": "compound 6 20 mg/kg combined with adriamycine 1.25 mg/kg"}, "[15]": {"conditions": "compound 6 20 mg/kg single treatment"}},
  "data": [
    {"molecule": "OC1Cn2ccnc2C(=C2CCN(CCc3ccc(OCc4ccc5ccccc5n4)cc3)CC2)c2ccsc21", "note": "(racemic) [Compound 28, (±)-6,10-dihydro-10-[1-[2-[4-(2-quinolinylmethoxy)-phenyl]ethyl]-4-piperidinylidene]-5H-imidazo[1,2-a]-thieno[3,2-d]azepin-6-ol]", "values": [
      {"measurement": "melting point", "result": 242.1, "unit": "°C"}
    ]},
    {"molecule": "COc1cccc2c1C(=O)c1c(O)c3c(c(O)c1C2=O)C[C@@](O)(C(=O)CO)C[C@@H]3O[C@H]1C[C@H](N)[C@H](O)[C@H](C)O1", "note": "[Adriamycine, adriamycine, reference compound]", "values": [
      {"measurement": "% Change vs. ADR", "setting": "[1]; [3]", "result": 0, "unit": "%"},
      {"measurement": "Survival Days med(min-max)", "setting": "[1]; [3]", "result": "13(12-15) Days"},
      {"measurement": "MST %", "setting": "[1]; [3]", "result": 118, "unit": "%"}
    ]},
    {"molecule": "O=Cc1cnc2n1CCc1ccccc1C2=C1CCN(CCc2ccc(OCc3ccc4ccccc4n3)cc2)CC1", "note": "[Compound 4, 6,11-dihydro-11-[1-[2-[4-(2-quinolinylmethoxy)phenyl]ethyl]-4-piperidinylidene]-5H-imidazo[2,1-b][3]benzazepine-3-carboxaldehyde]", "values": [
      {"measurement": "melting point", "result": 193.5, "unit": "°C"}
    ]},
    {"molecule": "COC(=O)c1cnc2n1CCc1ccccc1C2=C1CCN(CCc2ccc(OCc3ccc4ccccc4n3)cc2)CC1", "note": "[Compound 6, methyl 6,11-dihydro-11-[1-[2-[4-(2-quinolinylmethoxy)phenyl]ethyl]-4-piperidinylidene]-5H-imidazo[2,1-b][3]-benzazepine-3-carboxylate]", "values": [
      {"measurement": "% Change vs. ADR", "setting": "[1]; [4]", "result": 14, "unit": "%"},
      {"measurement": "Survival Days med(min-max)", "setting": "[1]; compound 6 0.63 mg/kg combined with adriamycine 1.25 mg/kg, ip daily day 1-10", "result": "14.5(14->30) Days"},
      {"measurement": "MST %", "setting": "[1]; [4]", "result": 132, "unit": "%"},
      {"measurement": "% Change vs. ADR", "setting": "[1]; [5]", "result": "−18", "unit": "%"},
      {"measurement": "Survival Days med(min-max)", "setting": "[1]; compound 6 0.63 mg/kg single treatment, ip daily day 1-10", "result": "11(10-12) Days"},
      {"measurement": "MST %", "setting": "[1]; [5]", "result": 100, "unit": "%"},
      {"measurement": "% Change vs. ADR", "setting": "[1]; [6]", "result": 18, "unit": "%"},
      {"measurement": "Survival Days med(min-max)", "setting": "[1]; compound 6 1.25 mg/kg combined with adriamycine 1.25 mg/kg, ip daily day 1-10", "result": "15(14-17) Days"},
      {"measurement": "MST %", "setting": "[1]; [6]", "result": 136, "unit": "%"},
      {"measurement": "% Change vs. ADR", "setting": "[1]; [7]", "result": "−13", "unit": "%"},
      {"measurement": "Survival Days med(min-max)", "setting": "[1]; compound 6 1.25 mg/kg single treatment, ip daily day 1-10", "result": "11.5(10-16) Days"},
      {"measurement": "MST %", "setting": "[1]; [7]", "result": 105, "unit": "%"},
      {"measurement": "% Change vs. ADR", "setting": "[1]; [8]", "result": 14, "unit": "%"},
      {"measurement": "Survival Days med(min-max)", "setting": "[1]; compound 6 2.5 mg/kg combined with adriamycine 1.25 mg/kg, ip daily day 1-10", "result": "14.5(10-20) Days"},
      {"measurement": "MST %", "setting": "[1]; [8]", "result": 132, "unit": "%"},
      {"measurement": "% Change vs. ADR", "setting": "[1]; [9]", "result": "−23", "unit": "%"},
      {"measurement": "Survival Days med(min-max)", "setting": "[1]; compound 6 2.5 mg/kg single treatment, ip daily day 1-10", "result": "10.5(10-12) Days"},
      {"measurement": "MST %", "setting": "[1]; [9]", "result": 95, "unit": "%"},
      {"measurement": "% Change vs. ADR", "setting": "[1]; [10]", "result": 14, "unit": "%"},
      {"measurement": "Survival Days med(min-max)", "setting": "[1]; compound 6 5 mg/kg combined with adriamycine 1.25 mg/kg, ip daily day 1-10", "result": "14.5(11-16) Days"},
      {"measurement": "MST %", "setting": "[1]; [10]", "result": 132, "unit": "%"},
      {"measurement": "% Change vs. ADR", "setting": "[1]; [11]", "result": "−18", "unit": "%"},
      {"measurement": "Survival Days med(min-max)", "setting": "[1]; compound 6 5 mg/kg single treatment, ip daily day 1-10", "result": "11(10-13) Days"},
      {"measurement": "MST %", "setting": "[1]; [11]", "result": 100, "unit": "%"},
      {"measurement": "% Change vs. ADR", "setting": "[1]; [12]", "result": 18, "unit": "%"},
      {"measurement": "Survival Days med(min-max)", "setting": "[1]; compound 6 10 mg/kg combined with adriamycine 1.25 mg/kg, ip daily day 1-10", "result": "15(14-28) Days"},
      {"measurement": "MST %", "setting": "[1]; [12]", "result": 136, "unit": "%"},
      {"measurement": "% Change vs. ADR", "setting": "[1]; [13]", "result": "−23", "unit": "%"},
      {"measurement": "Survival Days med(min-max)", "setting": "[1]; compound 6 10 mg/kg single treatment, ip daily day 1-10", "result": "10.5(10-13) Days"},
      {"measurement": "MST %", "setting": "[1]; [13]", "result": 95, "unit": "%"},
      {"measurement": "% Change vs. ADR", "setting": "[1]; [14]", "result": 23, "unit": "%"},
      {"measurement": "Survival Days med(min-max)", "setting": "[1]; compound 6 20 mg/kg combined with adriamycine 1.25 mg/kg, ip daily day 1-10", "result": "15.5(14-17) Days"},
      {"measurement": "MST %", "setting": "[1]; [14]", "result": 141, "unit": "%"},
      {"measurement": "% Change vs. ADR", "setting": "[1]; [15]", "result": "−18", "unit": "%"},
      {"measurement": "Survival Days med(min-max)", "setting": "[1]; compound 6 20 mg/kg single treatment, ip daily day 1-10", "result": "11(10-14) Days"},
      {"measurement": "MST %", "setting": "[1]; [15]", "result": 100, "unit": "%"}
    ]},
    {"molecule": "O=C(O)c1cnc2n1CCc1ccccc1C2=C1CCN(CCc2ccc(OCc3ccc4ccccc4n3)cc2)CC1", "note": "[Compound 7, 6,11-dihydro-11-[1-[2-[4-(2-quinolinylmethoxy)phenyl]ethyl]-4-piperidinylidene]-5H-imidazo[2,1-b][3]benzazepine-3-carboxylic acid]", "values": [
      {"measurement": "melting point", "result": 174.2, "unit": "°C"}
    ]},
    {"molecule": "COc1cc(CN2CCC(=C3c4ccccc4CCn4ccnc43)CC2)cc(OC)c1OCc1ccc2ccccc2n1", "note": "[Compound 32, 11-[1-[[3,5-dimethoxy-4-(2-quinolinylmethoxy)-phenyl]methyl]-4-piperidinylidene]-6,11-dihydro-5H-imidazo[2,1-b][3]benzazepine]", "values": [
      {"measurement": "melting point", "result": 214.8, "unit": "°C"}
    ]},
    {"molecule": "CC(=O)O[C@H]1C(=O)[C@@]2(C)[C@H]([C@H](OC(=O)c3ccccc3)[C@]3(O)C[C@H](OC(=O)[C@H](O)[C@@H](NC(=O)c4ccccc4)c4ccccc4)C(C)=C1C3(C)C)[C@]1(OC(C)=O)CO[C@@H]1C[C@@H]2O", "note": "[taxol, paclitaxel]", "values": [
      {"measurement": "AUC", "setting": "[2]", "result": "820 ± 110", "unit": "ng·h/mL"}
    ]}
  ]
}
